pIC50: −log10 of the molar value. Read-outs that look alike come from different tables or passages of the source.

Data on two molecules can be found in paper PMC6273433, “Design, Synthesis and Cytotoxicity of Novel Dihydroartemisinin-Coumarin Hybrids via Click Chemistry” (Molecules, 2016).

A short description of series [1]: MTT cytotoxicity assay, summary statements over all cell lines. Type of series: cell-based. The note with it: human, MRC-5, HCT-116, MDA-MB-231 and HT-29 cells; 96 h MTT assay, four cell lines, normoxic or anoxic. As for the experimental part: (§1) We focused our attention on the cytotoxicity of the four series of newly-synthesized compounds (10a–e, 11a–e, 12a–e, and 13a–e) under normoxic or anoxic conditions.
(§2) The data was calculated by the Logit method and presented as IC50 values in Table 1.
(§3) All of the newly-synthesized compounds were screened for in vitro cytotoxicity by MTT assay. The exponentially-growing MRC-5, HCT-116, MDA-MB-231, and HT-29 cells were allowed to grow until 80% confluency, the culture medium was discarded, digested with trypsin, separated centrifugally, then fresh culture medium was added and blown gently into single-cell suspension. Then, the cell suspension was seeded into each well of 96-well microculture plates at a concentration of 1.5 × 10^3–3 × 10^3 cells/well.
(§4) The cells were incubated with 50 μL of 2 mg/mL MTT solution for 4 h in a humidified incubator. The supernatant was discarded, and the media were then replaced with 200 μL of dimethyl sulfoxide to dissolve the purple colored formazan crystals formed in the wells, and their absorbances were measured at 492 nm with a microplate reader (Synergy-HT, BioTek Instruments, Winooski, VT, USA); 200 μL DMSO was set as the blank control.
(§5) The anoxia condition was achieved by placing cells in a sealed hypoxia incubator chamber (Catalog Number 27310, Stemcell Technologies, Inc., Vancouver, BC, Canada) filled with 5% CO2 and 95% N2.

Series [2] relates to MRC-5 (human fetal lung fibroblast cells, normal lung cell). As to the kind of experiment: MTT cytotoxicity assay, MRC-5 normal cells. The class given is cell-based. The note with it: MRC5, MRC-5, normoxia, 96 h MTT. As for the experimental part: as §1, §2, §3, §4
On the technique in general: Formazan colour is commonly taken as a measure of viable cells.

Series [3] deals with HT-29 (human colon carcinoma cell line, overexpresses high amounts of CA IX). Description: MTT cytotoxicity assay, HT-29 under anoxia or normoxia. The class given is cell-based. The following applies: for pIC50: Homo sapiens. As for the experimental part: as §1, §2, §3, §4, §5
The subject of series [4] is MDA-MB-231 (human breast carcinoma cell line, CA IX negative). Description: MTT cytotoxicity assay, MDA-MB-231 under anoxia or normoxia. The class given is cell-based. The following applies: for pIC50: Homo sapiens. Here is the method:
as §1, §2, §3, §4, §5

Series [5] relates to HCT-116 (human colorectal cancer cell line). As to the kind of experiment: MTT cytotoxicity assay, HCT-116 under anoxia or normoxia. Type of series: cell-based. The note with it: for pIC50: Homo sapiens. Here is the method:
as §1, §2, §3, §4, §5

A word on the IC50: it is the concentration needed to halve the response being measured. For the molecule `CC(=O)Nc1nnc(S(N)(=O)=O)s1` [AAZ, acetazolamide], the IC50 at 96 h in series [1] was over 100 µM.
Broadly, the pIC50 is −log10 of the IC50, conventionally taken in molar units. One may read the melting point as the temperature, or range, at which the solid turns liquid. `Cc1c(Cl)c(=O)oc2cc(OCc3cn(CCO[C@H]4O[C@@H]5O[C@@]6(C)CC[C@H]7[C@H](C)CC[C@@H]([C@H]4C)[C@@]57OO6)nn3)ccc12` [12d, 3-Chloro-7-(1-(2-(10β-dihydroartemisininoxy)ethyl)-1H-1,2,3-triazol-4-yl)methoxy-4-methyl-2H-chromen-2-one] displayed a melting point of 76 to 78 °C. Further, the pIC50 in series [2] is 4.21. In addition, the “HT-29 Value = IC50(normoxia)/IC50(anoxia)” value in series [3] (HT-29, activity promotion under anoxia) came out at 6.16. Also, the pIC50 in series [3] (HT-29, anoxia 24 h then normoxia 72 h, MTT, read-out: IC50 HT-29 Anoxia) was 5.44. Further, in series [3] (HT-29, normoxia, 96 h MTT, read-out: IC50 HT-29 Normoxia), the pIC50 was 4.65. In addition, the pIC50 in series [4] (MDA-MB-231, anoxia 24 h then normoxia 72 h, MTT, read-out: IC50 MDA-MB-231 Anoxia) was 4.36. For the same molecule, in series [4] (MDA-MB-231, normoxia, 96 h MTT, read-out: IC50 MDA-MB-231 Normoxia), the pIC50 was under 4.00. In series [4] (MDA-MB-231, activity promotion under anoxia, >100 set as 100), the “MDA-MB-231 Value = IC50(normoxia)/IC50(anoxia)” value was found to be 2.30. For the same molecule, the “HCT-116 Value = IC50(normoxia)/IC50(anoxia)” value in series [5] (HCT-116, activity promotion under anoxia, >100 set as 100) was 2.71. The pIC50 in series [5] (HCT-116, anoxia 24 h then normoxia 72 h, MTT, read-out: IC50 HCT-116 Anoxia) was 5.23. Further, in series [5] (HCT-116, normoxia, 96 h MTT, read-out: IC50 HCT-116 Normoxia), the pIC50 was 4.80.
